Measured values from ChEMBL document CHEMBL3137667, “[Drug-induced liver injury; fourteenth updated edition of the bibliographic database of liver injuries and related drugs]” (Gastroenterol Clin Biol, 2004).

How the values were obtained:
[1] = human
[2] = human; remark: listed apart in the source
[3] = human; remark: listed apart in the source
[4] = human; remark: listed apart in the source
[5] = human; remark: listed apart in the source
[6] = Highest frequency of moderate liver toxicity observed during clinical trials, expressed as a percentage. [column '% BIOL' in source]; conditions: human
[7] = human; remark: listed apart in the source
[8] = human; remark: listed apart in the source
[9] = human; remark: listed apart in the source
[10] = human, serum
[11] = human, serum, 4383 h
[12] = Highest frequency of acute liver toxicity observed during clinical trials, expressed as a percentage. [column '% AIGUE' in source]; conditions: human
[13] = human, serum; remark: listed apart in the source
[14] = human; remark: listed apart in the source
[15] = human; remark: listed apart in the source
[16] = Proposed mechanism(s) of liver damage. [column 'MEC' in source]; conditions: human
[17] = Times to onset, minimal and maximal, observed in the indexed observations. [column 'DELAI' in source]; conditions: human
[18] = Comments (NB not yet translated). [column 'COMMENTAIRES' in source]; conditions: human
[19] = Presence of at least one case with successful reintroduction. [column 'REINT' in source]; conditions: human
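Throughout, for Hepatotoxicity (association with vascular disease): count of indexed literature references reporting vascular liver injury in humans, e.g. peliosis hepatitis, hepatic veno-occlusive disease or Budd-Chiari syndrome.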
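Throughout, for Hepatotoxicity (benign tumour): value is a count of indexed literature references citing a benign tumour confirmed by histopathology.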
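Throughout, for Hepatotoxicity (choleostasis): human cholestatic liver injury, shown by histopathology or by peak ALT or AST elevation over alkaline phosphatase ratio below 2, value counts indexed literature reports.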
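Throughout, for Hepatotoxicity (chronic liver disease): chronic liver injury confirmed by histopathology or persistently raised serum aminotransferase activity beyond 6 months, value given as the count of indexed literature references.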
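Throughout, for Hepatotoxicity (cirrhosis): value is a count of indexed literature references reporting cirrhosis confirmed by histopathology.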
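Throughout, for Hepatotoxicity (cytolytic): human cytolytic liver injury, shown by histopathology or by a ratio above 5 of peak ALT or AST elevation to alkaline phosphatase elevation, value counts indexed references.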
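Throughout, for Hepatotoxicity (granulomatous hepatitis): value is a count of indexed literature references reporting granulomatous liver disease confirmed by histopathology.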
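Throughout, for Hepatotoxicity (malignant tumour): malignant tumour confirmed by histopathology, value gives the count of indexed literature references reporting it.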
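Throughout, for Hepatotoxicity (severe hepatitis): human clinical data: severe hepatitis, meaning potentially life-threatening liver failure or clinically observed cases, the value counts how many indexed literature references report it.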
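Throughout, for Hepatotoxicity (steatosis): steatosis confirmed by histopathology, value is the count of indexed references.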

Molecule	Hepatotoxicity (severe hepatitis) [1]	Hepatotoxicity (cirrhosis) [2]	Hepatotoxicity (malignant tumour) [3]	Hepatotoxicity (steatosis) [4]	Hepatotoxicity (association with vascular disease) [5]	Hepatotoxicity (moderate) [6] [%]	Hepatotoxicity (choleostasis) [7]	Hepatotoxicity (granulomatous hepatitis) [8]	Hepatotoxicity (cytolytic) [9]	Hepatotoxicity (acute) [10]	Hepatotoxicity (chronic liver disease) [11]	Hepatotoxicity (acute) [12] [%]	Hepatotoxicity (moderate) [13]	Hepatotoxicity (benign tumour) [14]	Hepatotoxicity (animal toxicity known) [15]	Hepatotoxicity (mechanism) [16]	Hepatotoxicity (time to onset) [17]	Hepatotoxicity (comment) [18]	Hepatotoxicity (successful reintroduction) [19]	also measured
CCOC(=O)C1(c2ccccc2)CCN(CCC(O)c2ccccc2)CC1 (stereo not given) [PHENOPERIDINE]	0	0	0	0	0	0	1	0	0	1	0	0	0	0	yes	–	–	–	–	–
C[C@]12CC[C@@H]3c4ccc(O)cc4CC[C@H]3[C@@H]1CC[C@@H]2O [ESTRADIOL]	0	0	0	0	0	0	1	0	0	1	0	0	0	0	yes	–	–	–	–	–
Cc1[nH]cnc1CSCCNc1ncc(Cc2ccc3c(c2)OCO3)c(=O)[nH]1 [OXMETIDINE]	0	0	0	0	0	0	0	0	0	1	0	0.1	1	0	yes	–	–	–	–	–
CC1(C)[C@H](C(=O)O)N2C(=O)C[C@H]2S1(=O)=O.CCN1CCN(C(=O)N[C@@H](C(=O)N[C@@H]2C(=O)N3C(C(=O)O)=C(CSc4nnnn4C)CS[C@H]23)c2ccc(O)cc2)C(=O)C1=O	–	0	0	0	0	–	0	0	0	–	0	–	–	0	yes	–	–	–	–	–
POVIDONE-IODINE	0	0	0	0	0	80	0	0	0	2	0	0	2	0	yes	–	–	–	–	–
CN(C)[C@@H]1C(O)=C(C(N)=O)C(=O)[C@@]2(O)C(O)=C3C(=O)c4c(O)ccc(Cl)c4[C@@](C)(O)[C@H]3C[C@@H]12 [CHLORTETRACYCLINE]	0	0	0	3	0	0	1	0	1	4	0	0	0	0	yes	–	–	–	–	–
CC(C)/N=c1\cc2n(-c3ccc(Cl)cc3)c3ccccc3nc-2cc1Nc1ccc(Cl)cc1 [CLOFAZIMINE]	0	0	0	0	0	16	1	0	0	1	0	5.6	2	0	yes	–	–	–	–	–
CC(=O)O[C@]1(C(C)=O)CC[C@H]2[C@@H]3C=C(C)C4=CC(=O)CC[C@]4(C)[C@H]3CC[C@@]21C [MEGESTROL ACETATE]	0	0	0	0	0	12.8	0	0	1	1	0	2.7	4	0	yes	–	–	–	–	–
O=C(O)c1cc(/N=N/c2ccc(S(=O)(=O)Nc3ccccn3)cc2)ccc1O [SULFASALAZINE]	11	0	0	1	0	26.7	14	11	31	50	2	5.7	44	0	–	Allergic	1 day - 1 year	DUCTOPENIE RC/COTRIMOXAZOLE/MESALAZINE/OLSALAZINE	yes	–
CC(C)OC(=O)C(C)(C)Oc1ccc(C(=O)c2ccc(Cl)cc2)cc1 [FENOFIBRATE]	–	1	0	0	0	–	5	0	11	13	4	–	27	0	–	Allergic	1 day - 3 years	RC/CLOFIBRATE CHOLESTASE_PROLONGEE DUCTOPENIE AC_ANTI-ML/-N	yes	Hepatotoxicity (severe hepatitis) ([1]; Liver): 0; Hepatotoxicity (moderate) ([6]; Liver): 52.9%; Hepatotoxicity (acute) ([12]; Liver): 2.7%
CN1C(C(=O)Nc2ccccn2)=C(O)c2ccccc2S1(=O)=O [PIROXICAM]	5	0	0	0	0	73	10	1	13	19	0	0.8	12	0	–	Allergic, Toxic	3 days - 1 year	AC_ANTI-N CHOLESTASE_PROLONGEE	yes	–
COc1ccc([C@@H]2Sc3ccccc3N(CCN(C)C)C(=O)[C@@H]2OC(C)=O)cc1 [DILTIAZEM]	1	0	0	1	0	6	5	2	6	11	0	2.4	20	0	–	Allergic	1 day - 5 months	RC/AMLODIPINE	yes	–
CN(C)CCC=C1c2ccccc2COc2ccccc21 [DOXEPIN]	0	0	0	0	0	33.3	1	0	2	2	0	0	3	0	–	Allergic	1 week	AC_ANTI-ML	yes	–
